In US20210317092A1 (BAYER PHARMA AKTIENGESELLSCHAFT, priority 2016, published 2021):
Where two headings read alike, the source gives them in different places.

Legend:
[1] = target: T1, human Bradykinin B1 receptor (Homo sapiens, UniProt P46663); test: Calcium flux Assay (FLIPR) with recombinant CHO-K1 cells expressing human Bradykinin B1 receptor, in presence (hB1 IC50) or absence (hB1 free IC50) of 0.1% BSA; assay type: cell-based
T1 construct: host or cells: CHO-K1
T1 sequence (P46663 1-353): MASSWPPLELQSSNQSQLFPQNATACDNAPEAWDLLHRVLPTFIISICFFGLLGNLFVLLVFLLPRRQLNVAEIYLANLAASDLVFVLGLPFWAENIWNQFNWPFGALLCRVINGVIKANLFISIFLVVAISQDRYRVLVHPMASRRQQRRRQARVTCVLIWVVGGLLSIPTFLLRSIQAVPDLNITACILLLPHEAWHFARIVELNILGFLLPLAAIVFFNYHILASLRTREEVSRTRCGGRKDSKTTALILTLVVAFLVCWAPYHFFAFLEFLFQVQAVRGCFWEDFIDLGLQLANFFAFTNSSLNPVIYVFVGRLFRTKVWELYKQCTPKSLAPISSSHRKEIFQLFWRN

[2] = target: T2, native human Bradykinin B1 receptor (Homo sapiens, UniProt P46663); test: Calcium flux Assay (FLIPR) with human fibroblasts expressing Bradykinin B1 receptor (hB1 IMR-90); assay type: cell-based; settings: IMR-90 human fibroblasts expressing native Bradykinin B1 receptor
T2 construct: which express native human Bradykinin B1 receptor after induction with human IL-10; Coriell Institute; host or cells: IMR-90 human foetal lung fibroblasts, cytokine-induced
T2 sequence (P46663 1-353): T1 sequence (P46663 1-353)
Protocol: Calcium flux Assay (FLIPR) with human fibroblasts expressing Bradykinin B1 receptor (hB1 IMR-90)
The Calcium flux Assay was carried out utilising IMR-90 human foetal lung fibroblasts (American Type Culture Collection, Rockville, Md.; and Coriell Institute, Camden, N.J.), which express native human Bradykinin B1 receptor after induction with human […].
The fibroblasts were cultured in complete growth media comprised of Dulbecco's modified Eagle's medium (DMEM; Sigma) containing 10% foetal bovine serum, 4 mM L-glutamine, and 1% nonessential amino acids. The cells were maintained in a humidified atmosphere with 5% CO2 at 37° C. and were sub-cultured at a ratio of 1:3, every other day.
For the assay, IMR-90 fibroblasts were harvested using TrypLE Express (GIBCO/Invitrogen) and seeded into 384-well plates (Corning Cellbinding Surface, Cat. 3683) at a density of 15000 cells/well. The following day, cells were treated with 0.35 ng/mL human […] in 10% FBS/MEM for 3h to up-regulate Bradykinin B1 receptor. Induced cells were loaded with fluorescent calcium indicator by incubation with 2.5 μM Fluo-4/AM (Invitrogen) at 37° C., 5% CO2 for 2 h in the presence of 2.5 mM probenecid in 1% FBS/MEM. Extracellular dye was removed by washing with assay buffer (2.5 mM probenecid and 0.1% BSA in 20 mM HEPES/HBSS without bicarbonate or phenol red, pH 7.5). Compound examples were assayed at 8 concentrations in triplicate. After addition of compound examples to the cell plate and incubation for 30 min at 28° C., the addition of Bradykinin B1 agonist Lys-(Des-Arg)-Bradykinin (Bachem, Brackley) at a final concentration of EC90 was carried out on the FLIPR instrument while continuously monitoring Ca^2+-dependent fluorescence at 538 nm. A peptide antagonist Lys-(Des-Arg-Leu)-Bradykinin (Bachem, Brackley) at 20 µM was used to determine the full inhibition as control. IC50 values were determined by the same way described for the FLIPR assay with recombinant cells.

[3] = in presence of 0.1% BSA, read-out: hB1 IC50
[4] = in absence of 0.1% BSA, read-out: hB1 free IC50

IC50 [1, 3] [nM]	IC50 [2] [nM]	IC50 [1, 4] [nM]	Structure (SMILES)
50.5	29.3		COc1ccc(-c2ccc(NC(=O)C3(c4ccc(F)c(C)c4)CC3)cc2-c2nnn[nH]2)cc1OC [Example 48, N-[3′,4′-dimethoxy-2-(1H-tetrazol-5-yl)biphenyl-4-yl]-1-(4-fluoro-3-methylphenyl) cyclopropane-carboxamide]
21.7	20.2	15.3	COc1ccc(-c2ccc(NC(=O)C3(C4CCC(C)(C)CC4)CC3)cc2-c2nnn[nH]2)cc1OC [Example 56, N-[3′,4′-dimethoxy-2-(1H-tetrazol-5-yl)biphenyl-4-yl]-1-(4,4-dimethyl-cyclohexyl) cyclopropane-carboxamide]
12.5	6	9.27	CCOc1ccc(-c2ccc(NC(=O)C3(c4ccc(Cl)c(F)c4)CC3)cc2-c2nnn[nH]2)cn1 [Example 70, 1-(4-chloro-3-fluorophenyl)-N-[4-(6-ethoxypyridin-3-yl)-3-(1H-tetrazol-5-yl)phenyl] cyclopropane-carboxamide]
15.5	5.72	6.82	CCOc1ccc(-c2ccc(NC(=O)C3(c4ccc(C(F)(F)F)cc4F)CC3)cc2-c2nnn[nH]2)cn1 [Example 72, N-[4-(6-ethoxypyridin-3-yl)-3-(1H-tetrazol-5-yl)phenyl]-1-[2-fluoro-4-(trifluoromethyl)phenyl] cyclopropane-carboxamide]
16.2	7.98	13.9	CCOc1ccc(-c2ccc(NC(=O)C3(c4cccc(Cl)c4F)CC3)cc2-c2nnn[nH]2)cn1 [Example 73, 1-(3-chloro-2-fluorophenyl)-N-[4-(6-ethoxypyridin-3-yl)-3-(1H-tetrazol-5-yl)phenyl] cyclopropane-carboxamide]
24	21.7	16.1	CCOc1ccc(-c2ccc(NC(=O)C3(c4cc(F)cc(Cl)c4)CC3)cc2-c2nnn[nH]2)cn1 [Example 77, 1-(3-chloro-5-fluorophenyl)-N-[4-(6-ethoxypyridin-3 yl)-3-(1H-tetrazol-5-yl)phenyl] cyclopropane-carboxamide]
24.5	15.8	21.2	CCOc1ccc(-c2ccc(NC(=O)C3(c4cc(Cl)ccc4F)CC3)cc2-c2nnn[nH]2)cn1 [Example 78, 1-(5-chloro-2-fluorophenyl)-N-[4-(6-ethoxypyridin-3-yl)-3-(1H-tetrazol-5-yl)phenyl] cyclopropane-carboxamide]
25.1	24.7		CCOc1ccc(-c2ccc(NC(=O)C3(c4cccc(F)c4F)CC3)cc2-c2nnn[nH]2)cn1 [Example 79, 1-(2,3-difluorophenyl)-N-[4-(6-ethoxypyridin-3-yl)-3-(1H-tetrazol-5-yl)phenyl] cyclopropane-carboxamide]
25.6	27.2	29.6	CCOc1ccc(-c2ccc(NC(=O)C3(c4cccc(F)c4)CC3)cc2-c2nnn[nH]2)cn1 [Example 80, N-[4-(6-ethoxypyridin-3-yl)-3-(1H-tetrazol-5-yl)phenyl]-1-(3-fluorophenyl) cyclopropane-carboxamide]
27.5	21.2	29.1	CCOc1ccc(-c2ccc(NC(=O)C3(c4ccc(F)cc4)CC3)cc2-c2nnn[nH]2)cn1 [Example 81, N-[4-(6-ethoxypyridin-3-yl)-3-(1H-tetrazol-5-yl)phenyl]-1-(4-fluorophenyl) cyclopropane-carboxamide]
33.3	14.9	29.1	CCOc1ccc(-c2ccc(NC(=O)C3(c4ccc(F)c(F)c4)CC3)cc2-c2nnn[nH]2)cn1 [Example 82, 1-(3,4-difluorophenyl)-N-[4-(6-ethoxypyridin-3-yl)-3-(1H-tetrazol-5-yl)phenyl] cyclopropane-carboxamide]
37.5	33	60.5	CCOc1ccc(-c2ccc(NC(=O)C3(c4cc(F)ccc4F)CC3)cc2-c2nnn[nH]2)cn1 [Example 83, 1-(2,5-difluorophenyl)-N-[4-(6-ethoxypyridin-3-yl)-3-(1H-tetrazol-5-yl)phenyl] cyclopropane-carboxamide]
92.5	27.4	40.3	CCOc1ccc(-c2ccc(NC(=O)C3(c4ccc(OC)c(F)c4)CC3)cc2-c2nnn[nH]2)cn1 [Example 86, N-[4-(6-ethoxypyridin-3-yl)-3-(1H-tetrazol-5-yl)phenyl]-1-(3-fluoro-4-methoxyphenyl) cyclopropane-carboxamide]
174	161	452	CCOc1ccc(-c2ccc(NC(=O)C3(C(F)(F)F)CC3)cc2-c2nnn[nH]2)cn1 [Example 91, N-[4-(6-ethoxypyridin-3-yl)-3-(1H-tetrazol-5-yl)phenyl]-1-(trifluoromethyl) cyclopropane-carboxamide]
39.8	25.3	37.7	CCOc1ccc(-c2ccc(NC(=O)C3(c4ccccc4F)CC3)cc2-c2nnn[nH]2)cn1 [Example 92, N-[4-(6-ethoxypyridin-3-yl)-3-(1H-tetrazol-5-yl)phenyl]-1-(2-fluorophenyl) cyclopropane-carboxamide]
23.8	25.1		CCOc1ccc(-c2ccc(NC(=O)C3(c4cccc(C)c4)CC3)cc2-c2nnn[nH]2)cn1 [Example 94, N-[4-(6-ethoxypyridin-3-yl)-3-(1H-tetrazol-5-yl)phenyl]-1-(3-methylphenyl) cyclopropane-carboxamide]
6.58	15.3	5.32	CCCc1cccc(C2(C(=O)Nc3ccc(-c4ccc(OCC)nc4)c(-c4nnn[nH]4)c3)CC2)c1 [Example 96, N-[4-(6-ethoxypyridin-3-yl)-3-(1H-tetrazol-5-yl)phenyl]-1-(3-propylphenyl) cyclopropane-carboxamide]
138	101		CCOc1ccc(-c2ccc(NC(=O)C3(c4cccc(C(C)(C)C)c4)CC3)cc2-c2nnn[nH]2)cn1 [Example 97, 1-(3-tert-butylphenyl)-N-[4-(6-ethoxypyridin-3-yl)-3-(1H-tetrazol-5-yl)phenyl] cyclopropane-carboxamide]
8.67	5.78		CCOc1ccc(-c2ccc(NC(=O)C3(c4cccc(C(F)(F)F)c4)CC3)cc2-c2nnn[nH]2)cn1 [Example 98, N-[4-(6-ethoxypyridin-3-yl)-3-(1H-tetrazol-5-yl)phenyl]-1-[3-(trifluoromethyl)phenyl] cyclopropane-carboxamide]
24	11.8		CCOc1ccc(-c2ccc(NC(=O)C3(c4ccc(C)cc4)CC3)cc2-c2nnn[nH]2)cn1 [Example 99, N-[4-(6-ethoxypyridin-3-yl)-3-(1H-tetrazol-5-yl)phenyl]-1-(4-methylphenyl) cyclopropane-carboxamide]
20.2	8.84	5.56	CCOc1ccc(-c2ccc(NC(=O)C3(c4ccc(Cl)cc4)CC3)cc2-c2nnn[nH]2)cn1 [Example 100, 1-(4-chlorophenyl)-N-[4-(6-ethoxypyridin-3-yl)-3-(1H-tetrazol-5-yl)phenyl] cyclopropane-carboxamide]
38.7	22.1	24.5	CCOc1ccc(-c2ccc(NC(=O)C3(c4ccc(F)cc4F)CC3)cc2-c2nnn[nH]2)cn1 [Example 101, 1-(2,4-difluorophenyl)-N-[4-(6-ethoxypyridin-3-yl)-3-(1H-tetrazol-5-yl)phenyl] cyclopropane-carboxamide]
34.8	21		CCOc1ccc(-c2ccc(NC(=O)C3(c4ccc(F)c(C)c4)CC3)cc2-c2nnn[nH]2)cn1 [Example 102, N-[4-(6-ethoxypyridin-3-yl)-3-(1H-tetrazol-5-yl]phenyl]-1-(4-fluoro-3-methylphenyl) cyclopropane-carboxamide]
